Laboratory results reported in patent US4465668A, “Method for improving intestinal absorption of cephalosporin derivatives” (Asahi Kasei Kogyo Kabushiki Kaisha, priority 1981, dated 1984).

Assay: Absorption test: blood concentration after oral administration to rats
Details: rat; for Blood concentration of Compound (I): suspended in 0.7% CMC aqueous solution, group average (5 animals); for Blood Concentration of Compound (II): dissolved in buffer aqueous solution pH 7; for Blood Concentration of Compound (II) / Blood Concentration of Compound (III) / Blood Concentration of Compound (IV) / Blood Concentration of Compound (V) / Blood Concentration of Compound (VI) / Blood Concentration of Compound (VII) / Blood Concentration of Compound (VIII) / Blood Concentration of Compound (IX): group average; for Blood Concentration of Compound (III) / Blood Concentration of Compound (IV) / Blood Concentration of Compound (V) / Blood Concentration of Compound (VI) / Blood Concentration of Compound (VII) / Blood Concentration of Compound (VIII) / Blood Concentration of Compound (IX): suspended in 0.7% CMC
Description: The absorption test of the compounds were measured by the following methods.
Male Wistar rats weighing 180-250 g were fed with only water overnight. The next day the rats were orally administered with 50 mg/kg of a test compound which was suspended in a 0.7% CMC aqueous solution. The concentration of the compound in blood of the tested animals (one group consisting of 5 animals) was measured 0.5, 1, 2 and 4 hours after the administration by Bioassay method by using Bacillus subtilis ATCC 6633 strain as an indicator bacteria. In the measurement, an ordinary culture medium was employed, and the preparation of the standard solution and other method were carried out in according to Japanese Antibiotical Pharmaceutical Standards. Further, the concentration of the compound in blood was also measured by high performance liquid chromatography. The blood concentration shown in the examples was an average value of each animal group.
The absorption test of 7-[2-(2-thienyl)-acetoamido]-3-[2-(L-prolyl-L-lysylaminomethyl-1,3,4-thiadiazolyl)-thiomethyl]-3-cephem-4-carboxylic acid formic acid salt was carried out by orally administering the salt which was dissolved in a buffer aqueous solution having the pH of 7. The results are as follows:
The same procedures as described in Example 8 were repeated except that other oligopeptides were employed instead of the α-tert-butyloxycarbonyl-L-prolyl-ε-tert-butyloxycarbonyl-L-lysine. The absorption test of these compounds thus obtained was carried out in the same manner as described in Example 8.

In the case of `CC(C)C[C@H](N)C(=O)N[C@@H](Cc1ccccc1)C(=O)OC(C(=O)NC1C(=O)N2C(C(=O)O)=C(CSc3nnnn3C)CS[C@H]12)c1ccccc1.O=CO` (stereo partly drawn) [Example 1, 7-D-(O-L-leucyl-L-phenylalanyl)-mandelamido-3-(1-methyl-1H-tetrazol-5-yl-thiomethyl)-3-cephem-4-carboxylic acid formic acid salt], the “Blood concentration of Compound (I)” value (0.5 hr after oral 50 mg/kg) is reported as 4510 ng/mL, the “Blood concentration of Compound (I)” value (1 hr after oral 50 mg/kg) is reported as 3700 ng/mL and the “Blood concentration of Compound (I)” value (2 hrs after oral 50 mg/kg) is reported as 1930 ng/mL. The “Blood concentration of Compound (I)” value (4 hrs after oral 50 mg/kg) was 830 ng/mL.
With `NCCCC[C@H](NC(=O)[C@@H]1CCCN1)C(=O)NCc1nnc(SCC2=C(C(=O)O)N3C(=O)C(NC(=O)Cc4cccs4)C3SC2)s1.O=CO` (stereo partly drawn) [Example 8, 7-[2-(2-thienyl)-acetoamido]-3-[2-(L-prolyl-L-lysylaminomethyl-1,3,4-thiadiazolyl)-thiomethyl]-3-cephem-4-carboxylic acid formic acid salt] the “Blood Concentration of Compound (II)” value (0.5 hr after oral 50 mg/kg) was 2140 ng/mL, the “Blood Concentration of Compound (II)” value (1 hr after oral 50 mg/kg) was 1770 ng/mL and the “Blood Concentration of Compound (II)” value (2 hrs after oral 50 mg/kg) was 1040 ng/mL. The “Blood Concentration of Compound (II)” value (4 hrs after oral 50 mg/kg) was 70 ng/mL.
With `Cc1nnc(SCC2=C(C(=O)OCOC(=O)[C@H](CCCCN)NC(=O)[C@@H](N)CC(C)C)N3C(=O)C(NC(=O)Cc4csc(N)n4)C3SC2)s1.Cl` (stereo partly drawn) [Example 15, 7-[2-(2-amino-4-thiazolyl)acetoamido-3-(5-methyl-1,3,4-thiadiazolyl)thiomethyl]-3-cephem-4-carboxylic acid L-leucyl-L-lysyloxymethyl ester hydrochloric acid salt] the “Blood Concentration of Compound (III)” value (0.5 hr after oral 50 mg/kg) was 1960 ng/mL, the “Blood Concentration of Compound (III)” value (1 hr after oral 50 mg/kg) was 2370 ng/mL and the “Blood Concentration of Compound (III)” value (2 hrs after oral 50 mg/kg) was 1030 ng/mL. For the same molecule, the “Blood Concentration of Compound (III)” value (4 hrs after oral 50 mg/kg) was 240 ng/mL.
In the case of `CC(=O)OCC1=C(C(=O)O)N2C(=O)[C@@H](NC(=O)CSCCNC(=O)[C@H](CC(C)C)NC(=O)[C@@H](N)Cc3ccccc3)[C@H]2SC1.O=C(O)C(F)(F)F` [Example 19, 7β-(2-L-phenylalanyl-L-leucylamidoethylthioacetoamido)-3-acetoxymethyl-3-cephem-4-carboxylic acid trifluoroacetic acid salt], the “Blood Concentration of Compound (IV)” value (0.5 hr after oral 50 mg/kg) is reported as 1070 ng/mL, the “Blood Concentration of Compound (IV)” value (1 hr after oral 50 mg/kg) is reported as 210 ng/mL and the “Blood Concentration of Compound (IV)” value (2 hrs after oral 50 mg/kg) is reported as 90 ng/mL. For the same molecule, the “Blood Concentration of Compound (IV)” value (4 hrs after oral 50 mg/kg) was less than 10 ng/mL.
With `CO/N=C(\C(=O)N[C@@H]1C(=O)N2C(C(=O)O)=C(COC(C)=O)CS[C@H]12)c1csc(NC(=O)[C@H](Cc2ccccc2)NC(=O)[C@@H](N)CC(C)C)n1.O=CO` [Example 22, 7β-[2-(2-L-leucyl-L-phenylalanylamidothiazol-4-yl)-(Z)-2-methoxyiminoacetoamido]cephalosporanic acid formic acid salt] the “Blood Concentration of Compound (V)” value (0.5 hr after oral 50 mg/kg) was 1690 ng/mL, the “Blood Concentration of Compound (V)” value (1 hr after oral 50 mg/kg) was 1830 ng/mL and the “Blood Concentration of Compound (V)” value (2 hrs after oral 50 mg/kg) was 1530 ng/mL. The “Blood Concentration of Compound (V)” value (4 hrs after oral 50 mg/kg) was 1030 ng/mL.
For `CO/N=C(\C(=O)N[C@@H]1C(=O)N2C(C(=O)O)=C(CSc3nnnn3C)CS[C@H]12)c1csc(NC(=O)[C@H](CCCCN)NC(=O)[C@@H](N)CC(C)C)n1.O=CO` [Example 25, 7β-[2-(2-L-leucyl-L-lysylamidothiazol-4-yl)-(Z)-2-methoxyiminoacetoamido]-3-[(1-methyl-1H-tetrazol-5-yl)-thiomethyl]-3-cephem-4-carboxylic acid formic acid salt], the “Blood Concentration of Compound (VI)” value (0.5 hr after oral 50 mg/kg) was 2110 ng/mL, the “Blood Concentration of Compound (VI)” value (1 hr after oral 50 mg/kg) was 1670 ng/mL and the “Blood Concentration of Compound (VI)” value (2 hrs after oral 50 mg/kg) was 1100 ng/mL. The “Blood Concentration of Compound (VI)” value (4 hrs after oral 50 mg/kg) was less than 100 ng/mL.
With `CO/N=C(\C(=O)N[C@@H]1C(=O)N2C(C(=O)O)=CCS[C@H]12)c1csc(NC(=O)[C@H](Cc2ccccc2)NC(=O)[C@@H](N)CCSC)n1.O=CO` [Example 27, 7β-[2-(2-L-methionyl-L-phenylalanylamidothiazol-4-yl)-(Z)-2-methoxyiminoacetamido]-3-cephem-4-carboxylic acid formic acid salt] the “Blood Concentration of Compound (VII)” value (0.5 hr after oral 50 mg/kg) was 2130 ng/mL, the “Blood Concentration of Compound (VII)” value (1 hr after oral 50 mg/kg) was 1840 ng/mL and the “Blood Concentration of Compound (VII)” value (2 hrs after oral 50 mg/kg) was 1000 ng/mL. The “Blood Concentration of Compound (VII)” value (4 hrs after oral 50 mg/kg) was 210 ng/mL.
In the case of `COC1(NC(=O)CSCC#N)C(=O)N2C(C(=O)OCOC(=O)[C@H](CCCCN)NC(=O)[C@@H](N)CC(C)C)=C(CSc3nnnn3C)CSC21.Cl` (stereo partly drawn) [Example 29, 7β-[(cyanomethyl)thio]acetoamido-7α-methoxy-3-[(1-methyl-1H-tetrazol-5-yl)thio]methyl-3-cephem-4-carboxylic acid L-leucyl-L-lysyloxymethyl ester hydrochloric acid salt], the “Blood Concentration of Compound (VIII)” value (0.5 hr after oral 50 mg/kg) is reported as 3140 ng/mL, the “Blood Concentration of Compound (VIII)” value (1 hr after oral 50 mg/kg) is reported as 2370 ng/mL and the “Blood Concentration of Compound (VIII)” value (2 hrs after oral 50 mg/kg) is reported as 1040 ng/mL. For the same molecule, the “Blood Concentration of Compound (VIII)” value (4 hrs after oral 50 mg/kg) was 320 ng/mL.
In the case of `Cc1nnc(SCC2=C(C(=O)OCOC(=O)[C@H](CCCCN)NC(=O)[C@@H](N)CC(C)C)N3C(=O)C(NC(=O)Cn4cnnn4)C3SC2)s1.Cl` (stereo partly drawn) [Example 35, 7-[1-(1H)-tetrazolylacetamido]-3-[2-(5-methyl-1,3,4-thiazolyl)-thiomethyl]-3-cephem-4-carboxylic acid L-leucyl-L-lysyloxymethyl ester hydrochloric acid salt], the “Blood Concentration of Compound (IX)” value (0.5 hr after oral 50 mg/kg) is reported as 5640 ng/mL, the “Blood Concentration of Compound (IX)” value (1 hr after oral 50 mg/kg) is reported as 3840 ng/mL and the “Blood Concentration of Compound (IX)” value (2 hrs after oral 50 mg/kg) is reported as 1870 ng/mL. For the same molecule, the “Blood Concentration of Compound (IX)” value (4 hrs after oral 50 mg/kg) was 740 ng/mL.
With `Cn1nnnc1SCC1=C(C(=O)O)N2C(=O)C(NC(=O)[C@H](OC(=O)[C@@H](N)Cc3ccccc3)c3ccccc3)C2SC1.O=CO` (stereo partly drawn) [compound 1, 7-D-(O-L-phenylalanyl)-mandelamido-3-(1-methyl-1H-tetrazol-5-yl-thiomethyl)-3-cephem-4-carboxylic acid formic acid salt, reference compound] the “Blood concentration of Compound (I)” value (0.5 hr after oral 50 mg/kg) was 210 ng/mL, the “Blood concentration of Compound (I)” value (1 hr after oral 50 mg/kg) was 230 ng/mL and the “Blood concentration of Compound (I)” value (2 hrs after oral 50 mg/kg) was 80 ng/mL. For the same molecule, the “Blood concentration of Compound (I)” value (4 hrs after oral 50 mg/kg) was 20 ng/mL.
